Bounds are passed on as bounds.

Data set [1] concerns Mycobacterium tuberculosis H37Rv. On the set-up: method as in earlier work. Conditions: M. tuberculosis H37Rv; cited from earlier work.
The nature of data set [2]: Epimerization/interconversion of hemiaminal isomers followed by HPLC. The data set is classed as physicochemical. Conditions: non-aqueous solvents. From the text: An interesting feature we identified during HPLC studies is that compounds 7 and 6 epimerize/interconvert in […] solvents (e.g., MeOH or CH3CN); this interconversion also was noted under neat conditions following periods of long-term storage. […] The possibility interchange of these two pairs of compounds was postulated (Supplementary Fig. 34B). […] It is indeed interesting to consider that cyclic hemiaminal installation in ilamycins C1, C2, E1, and E2 is likely reflective of a transient C33 aldehyde and that the αOH orientation is preferred; presumably this is driven to some extent by the fixed stereochemical orientations at C24 and C32 in each respective case (Fig. 3f). By virtue of this interconversion chemistry it is significant to note that assays carried out with these agents likely involved the use of isomeric mixtures of 6/7 and 3/4 and no one specific isomer.

As to `CC=CCC1NC(=O)C(CC(C)C)N2C(=O)C(CC(C)C2O)N(C)C(=O)C(C)NC(=O)C(Cc2ccc(O)c([N+](=O)[O-])c2)NC(=O)C(CC(C)C)N(C)C(=O)C(Cc2cn(C(C)(C)C3CO3)c3ccccc23)NC1=O` (centres unmarked) [compound 3, ilamycin C1], in data set [1], the MIC (usually the smallest concentration in the dilution series that meets the test's criterion for growth inhibition) is less than 1.3 µg/mL.

Turning to `C=CC(C)(C)n1cc(C[C@@H]2NC(=O)[C@H](C/C=C/C)NC(=O)[C@H](CC(C)C)N3C(=O)[C@H](C[C@H](C)[C@H]3O)N(C)C(=O)[C@H](C)NC(=O)[C@H](Cc3ccc(O)c([N+](=O)[O-])c3)NC(=O)[C@H](CC(C)C)N(C)C2=O)c2ccccc21` [compound 6, ilamycin E1], in data set [2], the stability result is reported as “reasonably stable”.

The values above are taken from PMC5577134 (Nature Communications, 2017).
